Experimental data reported in patent publication US9133139B2, “Fluoroalkyl-1,4-benzodiazepinone compounds” (BRISTOL-MYERS SQUIBB COMPANY, priority 2012, dated 2015).

Experiments:
[1] = Human metabolic stability half-life assay (liver microsomes); format: in vitro ADME; conditions: pH 7.4, human liver microsomes, CYP-mediated (NADPH-dependent), 0.5 μM compound, 45-minute time course, read-out: HLM (t1/2, min)
Procedure: Metabolic Stability Half-Life Panel
Result Interpretation Guideline
Incubation with Liver Microsomes
Sample Analysis—Instrumentation

[2] = tested on: human Notch 3; assay: Notch-CBF1 Transactivation Assay (luciferase reporter, transfected HeLa cells), Notch 3; format: cell-based; conditions: read-out: Notch 3 (IC50); HeLa cells transfected with truncated Notch 3 and CBF1 luciferase reporter, 18 hours incubation
Description: (§1) Notch-CBF1 Transactivation Assay
(§2) The Notch-CBF1 (C-promoter binding factor I) cell based transactivation assay is based on the ability of the released Notch intracellular domain fragments (NICDs) to function as transcription factors in conjunction with CBF1 and other nuclear factors. Luciferase assays were used to measure the antagonism of Notch-CBF1 transcriptional activity. HeLa cervical cancer cells are transiently co-transfected with pCDNA3.1/Hygro plasmids containing truncated Notch 1, Notch 2, Notch 3, or Notch 4 receptors and a PGL3 luciferase reporter vector containing 4 copies of CBF1 binding site. The cells were then tested for Notch-CBF1 activity in the absence or presence of test compounds. HeLa cells, maintained in DMEM (high glucose with HEPES), 1× glutamine/penicillin/streptomycin and 10% Fetal Bovine serum, were transiently transfected in a T175 Flask (4.5×10^6 cells/flask) using the Monster Transfection Kit (Minis #MIR2906) according to manufacturers specifications. Table 2 denotes respective DNA quantity for the transfections.
(§3) Assay media (5 μL) containing test compounds in final concentrations ranging from 5 μM to 8.4×10^−5 μM (3 fold serial dilutions) were added to the cells and the cell plates were then incubated for 18 hours at 37° C. and 5% CO2. Control wells contained DMSO vehicle (total counts) or 0.5 μM of an in-house small molecule inhibitor (background counts). Duplicates were used for each sample. Luciferase activity was measured after a 20-minute incubation with 50 μl STEADY-GLO® luciferase reagents according to manufacturer's specifications (Promega, Cat. #E2550) and analyzed by Envision plate reader (PerkinElmer, Boston, Mass.).
(§4) The antagonist effect of compounds was expressed as 100×[1−(average sample−average background)/(average total−average background)] where sample is the luciferase activity in the presence of test compound, background is equal to the luciferase activity in the presence of the small molecule inhibitor control and the total is signal induced in DMSO wells.

[3] = tested on: human Notch 1; assay: Notch-CBF1 Transactivation Assay (luciferase reporter, transfected HeLa cells), Notch 1; format: cell-based; conditions: read-out: Notch 1 (IC50); HeLa cells transfected with truncated Notch 1 and CBF1 luciferase reporter, 18 hours incubation
Description: as §1, §2, §3, §4

[4] = tested on: TALL-1; assay: Human Tumor Xenograft Models in Mice, TALL-1; format: in vivo; conditions: for Antitumor Activity in TALL-1 (LCK), BID dosing: oral, BID × 10, TALL-1 xenograft in NOD-SCID mice; for antitumor activity with oral administration (PO): Human Tumor Xenograft Models in mice
Procedure: Human Tumor Xenograft Models in Mice
Mice were fed food and water ad libitum.
Preclinical Chemotherapy Trials
When death occurred, the day of death was recorded.
In Vivo Antitumor Activity

[5] = High Throughput (HT) Metabolic Stability Panel, dog microsomes; format: in vitro ADME; conditions: ten-minute incubation, control compound expected values
Procedure: (§5) High Throughput (HT) Metabolic Stability Panel
(§6) Each compound was tested in duplicate.
(§7) Methods and Materials Incubation with Liver Microsomes
(§8) Peak integration was performed with the XCALIBUR® software.
(§9) A set of three compounds was tested along with the test compound in each assay plate.

[6] = High Throughput (HT) Metabolic Stability Panel, mouse microsomes; format: in vitro ADME; conditions: ten-minute incubation, control compound expected values
Procedure: as §5, §6, §7, §8, §9

[7] = High Throughput (HT) Metabolic Stability Panel, monkey microsomes; format: in vitro ADME; conditions: ten-minute incubation, control compound expected values
Procedure: as §5, §6, §7, §8, §9

[8] = High Throughput (HT) Metabolic Stability Panel, human microsomes; format: in vitro ADME; conditions: ten-minute incubation, control compound expected values
Procedure: as §5, §6, §7, §8, §9

[9] = High Throughput (HT) Metabolic Stability Panel, rat microsomes; format: in vitro ADME; conditions: ten-minute incubation, control compound expected values
Procedure: as §5, §6, §7, §8, §9

Row | SMILES | half-life at 0.5 μM [1] | IC50 [2] | IC50 [3] | antitumor activity with oral administration (PO) [4] | other results
1 | Cc1cccc2c1NC(=O)[C@@H](NC(=O)[C@H](CCC(F)(F)F)[C@@H](C(N)=O)c1ccccc1)N=C2c1cccc(F)c1 [Example 5, (2R,3R)—N1-((S)-5-(3-Fluorophenyl)-9-methyl-2-oxo-2,3-dihydro-1H-benzo[e][1,4]diazepin-3-yl)-3-phenyl-2-(3,3,3-trifluoropropyl)succinamide] | ≥ 30 min | 14.2 nM | – | – | –
2 | NC(=O)[C@@H](c1cccnc1)[C@@H](CCC(F)(F)F)C(=O)N[C@H]1N=C(c2ccccc2)c2ccccc2NC1=O [Example 10, (2R,3R)—N1-((S)-2-Oxo-5-phenyl-2,3-dihydro-1H-benzo[e][1,4]diazepin-3-yl)-3-(pyridin-3-yl)-2-(3,3,3-trifluoropropyl)succinamide] | – | 22.9 nM | 19.3 nM | – | –
3 | NC(=O)[C@@H](c1ccccc1)[C@@H](CCC(F)(F)F)C(=O)N[C@H]1N=C(c2ccccc2)c2ccccc2N(c2ccc(Cl)cn2)C1=O [Example 22, (2R,3R)—N-((3S)-1-(5-Chloro-2-pyridinyl)-2-oxo-5-phenyl-2,3-dihydro-1H-1,4-benzodiazepin-3-yl)-3-phenyl-2-(3,3,3-trifluoropropyl)succinamide] | – | 11.6 nM | 16 nM | – | –
4 | Cc1nocc1[C@H](C(N)=O)[C@@H](CCC(F)(F)F)C(=O)N[C@H]1N=C(c2ccccc2)c2ccccc2N(c2ccc(Cl)cn2)C1=O [Example 23, (2R,3R)—N-((3S)-1-(5-Chloro-2-pyridinyl)-2-oxo-5-phenyl-2,3-dihydro-1H-1,4-benzodiazepin-3-yl)-3-(3-methyl-4-isoxazolyl)-2-(3,3,3-trifluoropropyl)succinamide] | ≥ 30 min | 13.7 nM | 15.4 nM | – | –
5 | COc1cc(C#N)cc2c1NC(=O)[C@@H](NC(=O)[C@H](CCC(F)(F)F)[C@@H](C(N)=O)c1ccccc1)N=C2c1ccccc1 [Example 25, (2R,3R)—N1-((S)-7-Cyano-9-methoxy-2-oxo-5-phenyl-2,3-dihydro-1H-benzo[e][1,4]diazepin-3-yl)-3-phenyl-2-(3,3,3-trifluoropropyl)succinamide] | – | 19.1 nM | 24.2 nM | – | –
6 | NC(=O)[C@@H](c1ccccc1)[C@@H](CCC(F)(F)F)C(=O)N[C@H]1N=C(c2ccccc2)c2cccc(OC3CC3)c2NC1=O [Example 26, (2R,3R)—N1-((S)-9-Cyclopropoxy-2-oxo-5-phenyl-2,3-dihydro-1H-benzo[e][1,4]diazepin-3-yl)-3-phenyl-2-(3,3,3-trifluoropropyl)succinamide] | ≥ 30 min | – | – | showed antitumor activity | Antitumor Activity in TALL-1 (LCK), BID dosing ([4]; Dose 10 (unit not given)): 1.4 LCK
7 | Cc1cccc2c1NC(=O)[C@@H](NC(=O)[C@H](CCC(F)(F)F)[C@@H](C(N)=O)c1ccccc1)N=C2c1ccccc1 [Example 30, (2R,3R)—N1-((S)-9-Methyl-2-oxo-5-phenyl-2,3-dihydro-1H-benzo[e][1,4]diazepin-3-yl)-3-phenyl-2-(3,3,3-trifluoropropyl)succinamide] | ≥ 30 min | – | – | showed antitumor activity | Antitumor Activity in TALL-1 (LCK), BID dosing ([4]; Dose 20 (unit not given)): 1.2 LCK
8 | Cc1cccc2c1NC(=O)[C@@H](NC(=O)[C@H](CCC(F)(F)F)[C@@H](C(N)=O)c1ccccc1)N=C2c1cccc(Cl)c1 [Example 31, (2R,3R)—N1-((S)-5-(3-Chlorophenyl)-9-methyl-2-oxo-2,3-dihydro-1H-benzo[e][1,4]diazepin-3-yl)-3-phenyl-2-(3,3,3-trifluoropropyl)succinamide] | ≥ 30 min | – | – | showed antitumor activity | –
9 | Cc1cccc2c1NC(=O)[C@@H](NC(=O)[C@H](CCC(F)(F)F)[C@@H](C(N)=O)c1conc1C)N=C2c1ccc(F)cc1 [Example 33, (2R,3R)—N1-((S)-5-(4-Fluorophenyl)-9-methyl-2-oxo-2,3-dihydro-1H-benzo[e][1,4]diazepin-3-yl)-3-(3-methylisoxazol-4-yl)-2-(3,3,3-trifluoropropyl)succinamide] | ≥ 30 min | 11.5 nM | 19 nM | – | –
10 | CCc1nn(CCCN2CCN(c3cccc(Cl)c3)CC2)c(=O)n1CCOc1ccccc1 [Nefazodone] | – | – | – | – | Average Percent Remaining ± SD, Dog [5]: 0.4 ± 0.4%; Average Percent Remaining ± SD, Mouse [6]: 0.4 ± 0.3%; Average Percent Remaining ± SD, Monkey [7]: 0.6 ± 0.5%; Average Percent Remaining ± SD, Human [8]: 0.4 ± 0.4%; Average Percent Remaining ± SD, Rat [9]: 0.7 ± 0.6%
